The values below come from patent US11479533B2, “Inhibitors of Rho associated coiled-coil containing protein kinase” (KADMON CORPORATION, LLC, priority 2017, dated 2022).

The target of assay [1] is recombinant ROCK2 (amino acids 1-552) (Homo sapiens (Human), UniProt O75116). In words: Z'-lyte kinase assay, ROCK2. Format: biochemical. Here is the method:
Determination of compounds ROCK inhibitory activity in vitro (Z'lyte assay): recombinant ROCK1 (amino acids 1-535) and ROCK2 (amino acids 1-552) proteins were purchased from ThermoFisher Scientific. Compounds activities were measured by Z'-lyte kinase kit (ThermoFisher Scientific) and IC50s were calculated.
Compounds activities were measured by Z'-lyte kinase kit (ThermoFisher Scientific). […] IC50s were calculated using the GraphPad Prism software with kinase activities data that were collected from 9 points serial dilution of compounds treatment. The ROCK inhibition in A7R5 cells and NIH3T3 (Acta2-Luc) cells was performed as described above.
The percent inhibition rate was calculated by normalizing the kinase activity value obtained with compound treatment against DMSO control value and then applied to the equation, […]. IC50's were calculated using the nonlinear regression curve fit function of the GraphPad Prism software with kinase activities data measured with 9 points 2-fold serial dilution of compounds treatment.

Assay [2] deals with ACTA2-promoter-driven-luciferase in NIH3T3 cells. Put plainly: NIH3T3 Acta2-promoter driven-luciferase assay. The note with it: Mus musculus, plus TGFβ1, 24 hr, read-out: NIH3T3, Acta2-luc, IC50. Format: cell-based. Here is the method: NIH3T3 cells Acta2-promoter driven-luciferase assay: A NIH3T3 cell line stably expressing a luciferase reporter driven by the human ACTA2 gene promoter (−1000-1 bp) was established (NIH3T3-Acta2-luciferase). The cells were plated to confluence and treated with the test compounds plus TGFβ1 for 24 hr. Cells were then lysed and luciferase activity was measured using the LightSwitch luciferase kit from Active Motif.
ROCK inhibitors can be effectively rank ordered by ACTA2-promoter-driven-luciferase reporter cell assay. NIH3T3 cells stably expressing ACTA2-promoter-driven-luciferase were applied to measure ROCK compounds functional IC50's in cells. Cells were plated in 96 well plates to confluence and treated with 9 points serial dilution of compounds in combination with TGFβ1 for 24 hr. Luciferase activities were measured and compound's IC50's were calculated using the nonlinear regression curve fit function of the GraphPad Prism software. Compounds of the invention gave in cell IC50's under 200 nM, see FIG. 1c.

Assay [3] deals with ppMlc (T18/S19) levels in A7R5 cells. In words: A7R5 in-cell ELISA assay (ppMlc). Format: cell-based, rat. Conditions: Rattus norvegicus, A7R5, A7R5 cells, Table 2; read-out: pMLC IC50 (nM) A7R5. How it is done: Determination of compounds ROCK inhibitory activity in A7R5 cells: rat aortic smooth muscle cell line A7R5 cells were maintained and treated in DMEM medium with 10% of fetal bovine serum. Cells were seeded with density of 5,000 cells/well in 96-well plates for 24 hours and subsequently treated 90 min with testing compounds. Cells were then fixed and processed according to the In-Cell ELISA Colorimetric Detection Kit manual (Thermo Scientific).
A7R5 cells were treated with 9 points 2 fold serial dilution of compounds and ppMlc (T18/S19) levels were determined in order to calculate the cellular IC50s of the compounds.
An A7R5 in-cell ELISA assay was performed to determine ROCK inhibition of test articles. A7R5 cells were treated with 9 points 2-fold serial dilution of compounds and ppMlc (T18/S19) levels were determined to calculate cellular IC50 values of the compounds. […] A7R5 cells were treated with 9 points 2-fold serial dilution of compounds and ppMlc (T18/S19) levels were determined to calculate cellular IC50 values of the compounds using the nonlinear regression curve fit function of the GraphPad Prism software.

Bounds are passed on as bounds.

recombinant ROCK2 (amino acids 1-552), sequence (O75116 1-552): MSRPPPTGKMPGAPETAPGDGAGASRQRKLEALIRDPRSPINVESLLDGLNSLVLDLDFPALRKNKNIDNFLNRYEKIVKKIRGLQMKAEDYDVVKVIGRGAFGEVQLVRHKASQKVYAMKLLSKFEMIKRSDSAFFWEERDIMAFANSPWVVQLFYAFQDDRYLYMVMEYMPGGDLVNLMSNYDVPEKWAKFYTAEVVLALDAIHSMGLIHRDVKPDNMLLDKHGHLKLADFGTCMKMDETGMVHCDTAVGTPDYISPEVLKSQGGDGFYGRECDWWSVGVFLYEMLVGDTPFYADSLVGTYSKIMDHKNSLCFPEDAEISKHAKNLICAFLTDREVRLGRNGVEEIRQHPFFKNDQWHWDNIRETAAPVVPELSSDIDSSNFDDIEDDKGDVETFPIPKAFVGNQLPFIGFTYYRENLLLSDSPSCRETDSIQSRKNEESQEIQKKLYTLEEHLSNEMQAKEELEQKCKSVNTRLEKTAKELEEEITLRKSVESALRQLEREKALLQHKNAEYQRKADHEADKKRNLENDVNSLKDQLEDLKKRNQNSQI

Turning to `CNC(C(=O)Nc1ccc(-c2cn[nH]c2)cc1)c1cccc(C(=O)OC)c1` (stereo not drawn) [Example 30, Methyl 3-(2-((4-(1H-pyrazol-4-yl)phenyl)amino)-1-(methylamino)-2-oxoethyl)benzoate], the figures for the 50% inhibitory concentration (IC50) in assay [1], in assay [2] and in assay [3] were 18 nM, above 5000 nM and 247 nM, respectively.

With `CNC(C(=O)Nc1ccc(-c2cn[nH]c2)cc1)c1ccc(N(C)C)cc1` (stereo not drawn) [Example 31, N-(4-(1H-pyrazol-4-yl)phenyl)-2-(4-(dimethylamino)phenyl)-2-(methylamino)acetamide], the IC50 in assay [1] amounted to 55 nM; in assay [2], 1230 nM; in assay [3], 667 nM.

Take `CNC(C(=O)Nc1ccc(-c2cn[nH]c2)cc1)c1cccc(C(=O)O)c1` (stereo not drawn) [Example 32, 3-(2-((4-(1H-pyrazol-4-yl)phenyl)amino)-1-(methylamino)-2-oxoethyl)benzoic acid]: the IC50 in assay [1] is 31 nM; in assay [2] it was above 5000 nM; in assay [3] it was above 5000 nM.

For the compound `CNC(C(=O)Nc1ccc(-c2cn[nH]c2)cc1)c1ccc(C(=O)OC)cc1` (stereo not drawn) [Example 34, methyl 4-(2-((4-(1H-pyrazol-4-yl)phenyl)amino)-1-(methylamino)-2-oxoethyl)benzoate], the figures for the IC50 in assay [1], in assay [2] and in assay [3] were 310 nM, above 5000 nM and above 5000 nM, respectively.

Turning to `CNC(C(=O)Nc1ccc(-c2cn[nH]c2)cc1)c1ccc2nc(C)[nH]c2c1` (stereo not drawn) [Example 35, N-(4-(1H-pyrazol-4-yl)phenyl)-2-(2-methyl-1H-benzo[d]imidazol-6-yl)-2-(methylamino)acetamide], the IC50 is 486 nM in assay [1], above 5000 nM in assay [2] and above 5000 nM in assay [3].

As for `COCCCNC(C(=O)Nc1ccc(-c2cn[nH]c2)cc1)c1cccc(OC)c1` (stereo not drawn) [Example 36, N-(4-(1H-pyrazol-4-yl)phenyl)-2-(3-methoxyphenyl)-2-((3-methoxypropyl)amino)acetamide], the IC50 was 16 nM in assay [1], 1550 nM in assay [2] and 1580 nM in assay [3].

Consider `CCOCCNC(C(=O)Nc1ccc(-c2cn[nH]c2)cc1)c1cccc(OC)c1` (stereo not drawn) [Example 37, N-(4-(1H-pyrazol-4-yl)phenyl)-2-((2-ethoxyethyl)amino)-2-(3-methoxyphenyl)acetamide], for which the half-inhibitory concentration (IC50) in assay [1] worked out at 37 nM; in assay [2], 2310 nM; in assay [3] it was 977 nM.

Consider `COc1cccc(C(NCCCN(C)C)C(=O)Nc2ccc(-c3cn[nH]c3)cc2)c1` (stereo not drawn) [Example 38, N-(4-(1H-pyrazol-4-yl)phenyl)-2-((3-(dimethylamino)propyl)amino)-2-(3-methoxyphenyl)acetamide], for which the concentration for half-maximal inhibition (IC50) in assay [1] turned out to be 8.7 nM; in assay [2], 1620 nM; in assay [3], 338 nM.

As for `COc1cccc(C(NCC(=O)N(C)C)C(=O)Nc2ccc(-c3cn[nH]c3)cc2)c1` (stereo not drawn) [Example 39, N-(4-(1H-pyrazol-4-yl)phenyl)-2-((2-(dimethylamino)-2-oxoethyl)amino)-2-(3-methoxyphenyl)acetamide], the half-maximal inhibitory concentration (IC50) in assay [1] was 16 nM; in assay [2], above 5000 nM; in assay [3], 1670 nM.

For the compound `COc1cccc(C(NCCOC(C)C)C(=O)Nc2ccc(-c3cn[nH]c3)cc2)c1` (stereo not drawn) [Example 40, N-(4-(1H-pyrazol-4-yl)phenyl)-2-((2-isopropoxyethyl)amino)-2-(3-methoxyphenyl)acetamide], the IC50 worked out at 45 nM in assay [1], 826 nM in assay [2] and 632 nM in assay [3].

As to `COc1cccc(C(NCC(N)=O)C(=O)Nc2ccc(-c3cn[nH]c3)cc2)c1` (stereo not drawn) [Example 41, N-(4-(1H-pyrazol-4-yl)phenyl)-2-((2-amino-2-oxoethyl)amino)-2-(3-methoxyphenyl)acetamide], the IC50 in assay [1] is 12 nM; in assay [2], above 5000 nM; in assay [3], 1250 nM.

On to `CNC(=O)CNC(C(=O)Nc1ccc(-c2cn[nH]c2)cc1)c1cccc(OC)c1` (stereo not drawn) [Example 44, N-(4-(1H-pyrazol-4-yl)phenyl)-2-(3-methoxyphenyl)-2-((2-(methylamino)-2-oxoethyl)amino)acetamide], for which the 50% inhibitory concentration (IC50) in assay [1] amounted to 42 nM; in assay [2] it was 2230 nM; in assay [3] it was 2020 nM.

Regarding `COc1cccc(C(NCc2cn[nH]c2)C(=O)Nc2ccc(-c3cn[nH]c3)cc2)c1` (stereo not drawn) [Example 45, 2-(((1H-pyrazol-4-yl)methyl)amino)-N-(4-(1H-pyrazol-4-yl)phenyl)-2-(3-methoxyphenyl)acetamide], the IC50 was 53 nM in assay [1], 1460 nM in assay [2] and 1360 nM in assay [3].

Take `CCN(CCOC)C(C(=O)Nc1ccc(-c2cn[nH]c2)cc1)c1cccc(OC)c1` (stereo not drawn) [Example 46, N-(4-(1H-pyrazol-4-yl)phenyl)-2-(ethyl(2-methoxyethyl)amino)-2-(3-methoxyphenyl)acetamide]: the IC50 in assay [1] was 107 nM; in assay [2] it was 1200 nM; in assay [3] it was 1880 nM.

Turning to `COCCN(C)C(C(=O)Nc1ccc(-c2cn[nH]c2)cc1)c1cccc(OC)c1` (stereo not drawn) [Example 47, N-(4-(1H-pyrazol-4-yl)phenyl)-2-((2-methoxyethyl)(methyl)amino)-2-(3-methoxyphenyl)acetamide], the half-inhibitory concentration (IC50) in assay [1] was 30 nM; in assay [2], 465 nM; in assay [3] it was 321 nM.

As to `COCCNC(C(=O)Nc1cc(F)c(-c2cn[nH]c2)cc1OCCN(C)C)c1cccc(OC)c1` (stereo not drawn) [Example 48, N-(2-(2-(dimethylamino)ethoxy)-5-fluoro-4-(1H-pyrazol-4-yl)phenyl)-2-((2-methoxyethyl)amino)-2-(3-methoxyphenyl)acetamide], the half-inhibitory concentration (IC50) in assay [1] is 67 nM; in assay [2] it was 1010 nM; in assay [3], 314 nM.

Turning to `COc1cccc(C(NCCN2CCOCC2)C(=O)Nc2ccc(-c3cn[nH]c3)cc2)c1` (stereo not drawn) [Example 50, N-(4-(1H-pyrazol-4-yl)phenyl)-2-(3-methoxyphenyl)-2-((2-morpholinoethyl)amino)acetamide], the figures for the half-inhibitory concentration (IC50) in assay [1], in assay [2] and in assay [3] were 2.4 nM, 92 nM and 97 nM, respectively.

For `COCCN(C)C(C(=O)Nc1cc(F)c(-c2cn[nH]c2)cc1OCCN(C)C)c1cccc(OC)c1` (stereo not drawn) [Example 51, N-(2-(2-(dimethylamino)ethoxy)-5-fluoro-4-(1H-pyrazol-4-yl)phenyl)-2-((2-methoxyethyl)(methyl)amino)-2-(3-methoxyphenyl)acetamide], the figures for the IC50 in assay [1], in assay [2] and in assay [3] were 8.1 nM, 101 nM and 54 nM, respectively.

Consider `COc1cccc(C(NCCN2CCCC2)C(=O)Nc2ccc(-c3cn[nH]c3)cc2)c1` (stereo not drawn) [Example 52, N-(4-(1H-pyrazol-4-yl)phenyl)-2-(3-methoxyphenyl)-2-((2-(pyrrolidin-1-yl)ethyl)amino)acetamide], for which the half-inhibitory concentration (IC50) in assay [1] was 17 nM; in assay [2] it was 675 nM; in assay [3] it was 106 nM.

As to `COCC1(NC(C(=O)Nc2ccc(-c3cn[nH]c3)cc2)c2cccc(OC)c2)CC1` (stereo not drawn) [Example 53, N-(4-(1H-pyrazol-4-yl)phenyl)-2-((1-(methoxymethyl)cyclopropyl)amino)-2-(3-methoxyphenyl)acetamide], the IC50 in assay [1] turned out to be 31 nM; in assay [2], 1260 nM; in assay [3], 759 nM.

For `COc1cccc(C(NCCOCC(F)(F)F)C(=O)Nc2ccc(-c3cn[nH]c3)cc2)c1` (stereo not drawn) [Example 54, N-(4-(1H-pyrazol-4-yl)phenyl)-2-(3-methoxyphenyl)-2-((2-(2,2,2-trifluoroethoxy)ethyl)amino)acetamide], the IC50 in assay [1] stood at 68 nM; in assay [2] it was 2670 nM; in assay [3], 1520 nM.

Turning to `COCCNC(C(=O)Nc1ccc(-c2cn[nH]c2)c(F)c1)c1cccc(OC)c1` (stereo not drawn) [Example 55, N-(3-fluoro-4-(1H-pyrazol-4-yl)phenyl)-2-((2-methoxyethyl)amino)-2-(3-methoxyphenyl)acetamide], the IC50 in assay [1] is 17 nM; in assay [2] it was 601 nM; in assay [3], 506 nM.
